Experiments:
[1] = tested on: wild-type HIV-IIIB strain; experiment: Antiviral analysis EGFP: anti-HIV activity in MT4 LTR-EGFP cells; assay type: cell-based, HIV-1; details: fluorescence of HIV-infected cells reduced by 50%, three days after infection
Method: The compounds of the present invention were tested for anti-viral activity in a cellular assay, which was performed according to the following procedure.
The human T-cell line MT4 is engineered with Green Fluorescent Protein (GFP) and an HIV-specific promoter, HIV-1 long terminal repeat (LTR). This cell line is designated MT4 LTR-EGFP, and can be used for the in vitro evaluation of anti-HIV activity of investigational compounds. In HIV-1 infected cells, the Tat protein is produced which upregulates the LTR promotor and finally leads to stimulation of the GFP reporter production, allowing measuring ongoing HIV-infection fluorometrically.
(§1) Effective concentration values such as 50% effective concentration (EC50) can be determined and are usually expressed in μM. An EC50 value is defined as the concentration of test compound that reduces the fluorescence of HIV-infected cells by 50%. The 50% cytotoxic concentration (CC50 in μM) is defined as the concentration of test compound that reduces fluorescence of the mock-infected cells by 50%. The ratio of CC50 to EC50 is defined as the selectivity index (SI) and is an indication of the selectivity of the anti-HIV activity of the inhibitor. The ultimate monitoring of HIV-1 infection and cytotoxicity is done using a scanning microscope. Image analysis allows very sensitive detection of viral infection. Measurements are done before cell necrosis, which usually takes place about five days after infection, in particular measurements are performed three days after infection.
The following Table 5 lists EC50 values, expressed in micromole/liter, against wild-type HIV-IIIB strain, for a selected number of compounds of the invention.

[2] = Cytotoxicity in mock-infected MT4 CMV-EGFP cells; assay type: cell-based, human; details: human, fluorescence reduced by 50%
Excerpt: (§2) Analogously, MT4 cells are engineered with GFP and the constitutional cytomegalovirus (CMV) promotor. This cell line is designated MT4 CMV-EGFP, and can be used for the in vitro evaluation of cytotoxicity of investigational compounds. In this cell line, GFP levels are comparably to those of infected MT4 LTR-EGFP cells. Cytotoxic investigational compounds reduce GFP levels of mock-infected MT4 CMV-EGFP cells.
as §1

[3] = tested on: MT4 CMV-EGFP cells; experiment: Cytotoxicity in mock-infected MT4 CMV-EGFP cells; assay type: cell-based, human; details: fluorescence reduced by 50%
Excerpt: as §2, §1

[4] = Human immunodeficiency virus 1, 72 h

Row | SMILES | EC50 [1, 4] | CC50 at 3 days [2] | EC50 [1] | CC50 [3]
1 | Cc1ccc(-n2c(=O)c(C#N)cc3ccc(-c4cccc(CNC(=O)CN(C)C)c4)cc32)cc1C#N [compound 158] | 0.21 µM | 11.5 µM | – | –
2 | Cc1ccc(-n2c(=O)c(C#N)cc3ccc(NCCCN4CCCC4)cc32)cc1C#N [compound 157] | 0.89 µM | 52.7 µM | – | –
3 | Cn1c(=O)oc2cc(-n3c(=O)c(C#N)cc4ccccc43)ccc21 [compound 8] | 12.5 µM | > 100 µM | – | –
4 | N#Cc1c(N)c2ccc(Br)cc2n(-c2ccc([N+](=O)[O-])cc2)c1=O [compound 118] | 0.72 µM | > 32 µM | – | –
5 | Cc1ccc2c(N(C)C)c(C#N)c(=O)n(-c3ccc([N+](=O)[O-])cc3)c2n1 [compound 127] | 22.4 µM | > 32 µM | – | –
6 | N#Cc1cc2ccc(N)cc2n(-c2ccc([N+](=O)[O-])cc2)c1=O [compound 24] | 1.48 µM | > 32 µM | – | –
7 | COc1cc2cc(C#N)c(=O)n(-c3ccc([N+](=O)[O-])cc3)c2cc1OC [compound 93] | 7.01 µM | > 32 µM | – | –
8 | Cc1ccc(-n2c(=O)c(C#N)cc3ccc(OCCCN(C)C)cc32)cc1C#N [compound 147] | 0.85 µM | 83.9 µM | – | –
9 | N#Cc1cc2cc(O)c(O)cc2n(-c2ccc([N+](=O)[O-])cc2)c1=O [compound 94] | > 32 µM | > 32 µM | – | –
10 | N#Cc1cc2ccc(-n3cnnc3)cc2n(-c2ccc([N+](=O)[O-])cc2)c1=O [compound 26] | 80.9 µM | > 100 µM | – | –
11 | Cc1ccc(-n2c(=O)c(C#N)cc3ccccc32)cc1C#N [compound 163] | 9.25 µM | > 100 µM | – | –
12 | N#Cc1c(N)c2ccc(-c3cccs3)cc2n(-c2ccc([N+](=O)[O-])cc2)c1=O [compound 119] | 0.52 µM | > 100 µM | – | –
13 | N#Cc1c(NCCN2CCCC2)c2ccccc2n(-c2ccc([N+](=O)[O-])cc2)c1=O [compound 130] | 3.71 µM | > 100 µM | – | –
14 | N#Cc1cc2ccc(-n3ccnc3)cc2n(-c2ccc([N+](=O)[O-])cc2)c1=O [compound 27] | 1.13 µM | > 100 µM | – | –
15 | COc1ccc2cc(C#N)c(=O)n(-c3ccc(C)c(C#N)c3)c2c1 [compound 146] | 4.67 µM | > 100 µM | – | –
16 | Cc1ccc(-n2c(=O)c(C#N)cc3ccc(-c4ccccn4)cc32)cc1C#N [compound 159] | 1.74 µM | 86 µM | – | –
17 | Cc1c(C#N)c(=O)n(-c2ccc([N+](=O)[O-])cc2)c2ccccc12 [compound 7] | 9.34 µM | > 100 µM | – | –
18 | N#Cc1c(N)c2cc(Cl)ccc2n(-c2ccc([N+](=O)[O-])cc2)c1=O [compound 107] | – | – | > 100 µM | > 100 µM
19 | CCN(CC)CCCOc1ccc2cc(C#N)c(=O)n(-c3ccc([N+](=O)[O-])cc3)c2c1 [compound 66] | – | – | 1.26 µM | > 32 µM
20 | CN(C)CCCOc1ccc2cc(C#N)c(=O)n(-c3ccc([N+](=O)[O-])cc3)c2c1 [compound 64] | – | – | 0.47 µM | 70.6 µM
21 | N#Cc1cc2ccc(-c3cc[nH]n3)cc2n(-c2ccc([N+](=O)[O-])cc2)c1=O [compound 46] | – | – | 0.16 µM | > 100 µM
22 | N#Cc1cc2cc(OC[C@H]3CCCN3)ccc2n(-c2ccc([N+](=O)[O-])cc2)c1=O [compound 87] | – | – | 1.19 µM | > 32 µM
23 | CNCCNc1ccc2cc(C#N)c(=O)n(-c3ccc([N+](=O)[O-])cc3)c2c1 [compound 15] | – | – | 1.37 µM | > 32 µM
24 | N#Cc1cc2ccc(OCCCCN)cc2n(-c2ccc([N+](=O)[O-])cc2)c1=O [compound 60] | – | – | 3.76 µM | > 32 µM
25 | CN(C)CCOc1ccc2cc(C#N)c(=O)n(-c3ccc([N+](=O)[O-])cc3)c2c1 [compound 62] | – | – | 4.29 µM | > 32 µM
26 | Cc1ccc(-n2c(=O)c(C#N)c(N)c3ccc(-c4ccsc4)cc32)cc1C#N [compound 125] | – | – | 4.11 µM | > 100 µM
27 | Cc1ccc(-n2c(=O)c(C#N)c(N)c3ccc(Cl)cc32)cc1C#N [compound 162] | – | – | 0.87 µM | > 100 µM

— patent US20100087649A1, “QUINOLINONE DERIVATIVES” (priority 2006, published 2010)
